Data reported in PMC7433010, “Exploration of multi‐target effects of 3‐benzoyl‐5‐hydroxychromen‐2‐one in Alzheimer’s disease cell and mouse models” (Aging Cell, 2020).

What was measured:
NQO1 = experiment: Western blot of NQO1 in ∆K280 TauRD‐DsRed SH‐SY5Y cells; format: cell-based, human; conditions: 1 µM; induced untreated 79%, uninduced 100%
Experimental: (§1) Total proteins from ∆K280 TauRD-DsRed SH-SY5Y cells were obtained using a RIPA buffer containing 50 mM Tris-HCl (pH8.0), 150 mM NaCl, 2 mM EDTA (pH8.0), 50 mM NaF, 0.1% SDS, 0.5% sodium deoxycholate, 1% NP40, and a protease inhibitor cocktail (Sigma-Aldrich). After sonication and sitting on ice for 20 min, the lysates were centrifuged at 14,000 × g for 30 min at 4°C. Protein concentrations were determined using a protein assay kit (Bio-Rad, Hercules, CA, USA), with albumin as a standard. Total proteins (20 µg) were electrophoresed on 10% or 12% SDS-polyacrylamide gel and transferred onto polyvinylidene difluoride (PVDF) membranes (Sigma-Aldrich) through reverse electrophoresis. […] Subsequently, immune complexes were detected using a horseradish peroxidase-conjugated goat anti-mouse or goat anti-rabbit IgG antibody (1:5000; GeneTex, Irvive, CA, USA) and a chemiluminescent substrate (Millipore).

GCLC = experiment: Western blot of GCLC in ∆K280 TauRD‐DsRed SH‐SY5Y cells; format: cell-based, human; conditions: 1 µM; induced untreated 78%, uninduced 100%
Experimental: as §1

CREB = experiment: Western blot of CREB in ∆K280 TauRD‐DsRed SH‐SY5Y cells; format: cell-based, human; conditions: 1 µM; induced untreated 82%, uninduced 100%
Experimental: To knock down CREB expression in ∆K280 TauRD-DsRed SH-SY5Y cells, lentiviral short hairpin RNA (shRNA) targeting CREB (TRCN0000226466), NRF2 (TRCN0000007558), and a negative control scrambled (TRC2.Void) were obtained from National RNAi Core Facility, IMB/GRC, Academia Sinica, Taipei, Taiwan. On day 1, cells were plated on 6-well plates (for protein analysis) or 24-well plates (for neurite outgrowth analysis) in the presence of retinoic acid as described. On the second day, the cells were infected with lentivirus (multiplicity of infection: 3) in medium with polybrene (8 µg/mL; Sigma-Aldrich). […] On day 9, the cells were collected for NRF2, CREB, pCREB, and cleaved CASP3 protein analysis or analyzed for neurite outgrowth as described.
as §1, with “After sonication and sitting on ice for 20 min, the lysates were centrifuged at 14,000 × g for 30 min at 4°C.” left out, “standard.” for “standard. Total proteins (20 µg) were electrophoresed on 10% or 12% SDS-polyacrylamide gel and transferred onto polyvinylidene difluoride (PVDF) membranes (Sigma-Aldrich) through reverse electrophoresis.”

BDNF = experiment: Western blot of BDNF in ∆K280 TauRD‐DsRed SH‐SY5Y cells; format: cell-based, human; conditions: 1 µM, uninduced 100%
Experimental: as §1

AKT = experiment: Western blot of AKT in ∆K280 TauRD‐DsRed SH‐SY5Y cells; format: cell-based, human
Experimental: as §1
(§2) Figure S4. ΔK280 TauRD-DsRed SH-SY5Y cells. […] On day 9, neurite outgrowth and caspase 3 activity were measured. In addition, expression of HSPB1, NRF2, and CREB pathways were assessed. (b) Relative AKT, pAKT, ERK, and pERK protein levels analyzed through immunoblotting. […]

ERK1/2 = experiment: Western blot of ERK1/2 in ∆K280 TauRD‐DsRed SH‐SY5Y cells; format: cell-based, human
Experimental: as §1, §2

[1] = test system: STZ‐induced hyperglycemic 3 × Tg‐AD mice; experiment: Y‐maze task in STZ‐treated 3 × Tg‐AD mice; format: in vivo, mouse; conditions: day 26; 40 mg/kg i.p.; STZ 53%, – STZ 63%
Experimental: Mice harboring APPSwe, PS1M146V, and […] transgenes (3×Tg-AD) (Oddo et al., 2003) were purchased from the Jackson Laboratory (004807; Bar Harbor, ME, USA). Six-month-old male homozygous 3×Tg-AD mice were group housed at 20–25°C and 60% relative humidity under a daily 12-h light/12-h dark cycle, with assess to food and water ad libitum. Mice were randomly divided into 3 groups: – streptozocin (STZ), STZ, and STZ/LM-031 (n = 10 per group). STZ-induced hyperglycemia was used to accelerate the development of AD phenotype (Chen et al., 2014). […] Mouse body weight was measured and blood glucose level was measured on days 1, 8, 15, 22, and 29 using a blood glucose meter (Bioland Technology, Taipei, Taiwan). […]
A Y-maze composed of three equally spaced arms (40 cm long, 30 cm high, and 15 cm wide) was used to assess spontaneous alternation behavior. On day 26, each mouse was placed in one of the arm compartments and was allowed to move freely for 8 min; the number of entries and the sequence of arms entered were recorded. Spatial working memory was assessed through the spontaneous alternation performances of a Y-maze exploration as described (Maurice et al., 1994). […] The percent of spontaneous alternation behavior was calculated as the ratio of actual alternation to possible alternations (total arm entries – 2) × 100.

[2] = PAMPA‐BBB permeability assay
Experimental: The permeability of LM-031 was determined by a PAMPA-BBB assay. Briefly, the donor well (Millipore) was filled with 300 μl of LM-031 (1 μM) solution. […] The filter membrane (PVDF membrane, pore size 0.45 μm; Millipore) was coated with 4 μl of 20 mg/ml porcine polar brain lipid (Avanti Polar Lipids, Alabaster, AL, USA) in dodecane and the acceptor well was filled with 200 μl of acceptor buffer (5% DMSO in PBS). The filter plate was carefully placed on the donor plate to form a “sandwich” (consisting of aqueous donor on the bottom, artificial lipid membrane in the middle, and aqueous acceptor on the top). Each compound was tested in triplicate. The sandwich plate was incubated at room temperature for 18 h. After the permeation time, the PAMPA sandwich plate was separated. The concentration of LM-031 in the acceptor and donor wells was determined using QTRAP 6500 mass spectrometer (AB SCIEX, Singapore) linked to 1200 HPLC system (Agilent Technologies, Palo Alto, CA, USA).

Papp at 18 h, 1 µM [2]: 4.8 ± 0.12 ×10⁻⁶ cm/s
SMILES: O=C(c1ccccc1)c1cc2c(O)cccc2oc1=O [LM‐031, 3‐benzoyl‐5‐hydroxychromen‐2‐one]
NQO1 protein level (NQO1): 94%
GCLC protein level (GCLC): 120%
CREB protein level (CREB): 122%
BDNF protein level, 14 kDa (BDNF; induced untreated 82%): 155%
BDNF protein level, 32 kDa (BDNF; induced untreated 83%): 101%
AKT level (AKT): not notably affected
ERK1/2 level (ERK1/2): not notably affected
Y‐maze alternation rate [1]: 72%
